According to patent publication US20120142623A1, “Compositions And Methods For Predicting Inhibitors Of Protein Targets” (priority 2006, published 2012):
Read-outs that look alike come from different tables or passages of the source.

How the values were obtained:
[1] = tested on: herpesvirus lytic phase viral growth; test: Herpesvirus lytic phase viral growth in vitro; format: cell-based; conditions: dose-dependent, starting at micromolar concentrations
[2] = tested on: chloroquine-resistant strain K1 of P. falciparum; test: P. falciparum growth inhibition in culture, strain K1; format: cell-based, Plasmodium falciparum; conditions: Plasmodium falciparum, K1
KSHV protease [3] = target: T1, KSHV protease (Human herpesvirus 8 type P, UniProt Q2HRB6); test: Surface Plasmon Resonance, KSHV protease; format: binding; design: herpes simplex virus (HSV) proteases (including HSV2, VZV, EBV, CMV, and KSHV); conditions: SPR, FIG. 4
T1 sequence (Q2HRB6 1-230): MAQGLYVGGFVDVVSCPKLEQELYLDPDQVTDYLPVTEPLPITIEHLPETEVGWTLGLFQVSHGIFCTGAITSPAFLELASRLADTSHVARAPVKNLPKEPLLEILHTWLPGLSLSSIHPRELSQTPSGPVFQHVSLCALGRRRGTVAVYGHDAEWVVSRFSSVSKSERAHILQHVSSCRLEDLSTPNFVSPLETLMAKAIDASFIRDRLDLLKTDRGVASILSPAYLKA
Experimental: (§1) Four inhibitors were evaluated; our top ranking one (TMPyP4) clearly binds to all three proteases as predicted. […] A third inhibitor, GW8510, predicted to bind fails (i.e., a misprediction). […] Our inhibitor prediction is completely consistent with the observed experimental data which is verified further by cell culture studies in FIG. 4 and compared to existing antiherpes drugs.

HSV-1 strain F = test: HSV-1 infection of Vero cells, virus titer; format: cell-based
HSV2 protease = target: T2, HSV2 protease (Human herpesvirus 2, UniProt P89449); test: Surface Plasmon Resonance (SPR), dissociation constant for HSV protease; format: binding, herpes simplex virus (HSV2)
T2 construct: HSV2 protease Kd (uM)
T2 sequence (P89449 1-247): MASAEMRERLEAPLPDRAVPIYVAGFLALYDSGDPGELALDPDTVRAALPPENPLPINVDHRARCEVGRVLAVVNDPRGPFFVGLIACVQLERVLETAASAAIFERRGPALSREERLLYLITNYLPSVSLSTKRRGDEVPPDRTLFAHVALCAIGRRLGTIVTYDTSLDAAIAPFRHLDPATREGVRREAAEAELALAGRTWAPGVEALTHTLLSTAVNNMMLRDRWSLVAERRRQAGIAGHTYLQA
Description: (§2) The first experimental verification of our computational predictions were with TMPyP4, the top ranking inhibitor predicted to bind to all known herpesvirus proteases (see FIG. 3). This is also the inhibitor that we have characterized most computationally and experimentally, so we focus primarily on this inhibitor. […] Traditional approaches to design an inhibitor against this molecule is likely to fail since it has an extremely shallow active site pocket. However, protease dimerisation is essential for protein function and our top ranking inhibitor not only fit around the active site (covering it) but also intercolated itself in the dimer interface. Our predicted mode of action was therefore two fold: covering the surface of the active site, and inhibition of dimerisation in a reversible manner (i.e., as dimers formed, our inhibitor would bind which would disrupt the dimer, resulting in the inhibitor binding weakly and likely released, which would lead to reformation of the dimer, and so on). FIG. 3 illustrates this mode of action. […] TMPyP4 is the only known compound that is capable of inhibiting all three classes of herpesviruses.
(§3) Four inhibitors were evaluated; our top ranking one (TMPyP4) clearly binds to all three proteases as predicted. […] A third inhibitor, GW8510, predicted to bind fails (i.e., a misprediction). […]

KSHV protease [4] = target: T1, KSHV protease; test: Surface Plasmon Resonance (SPR), dissociation constant for KSHV protease; format: binding, Kaposi's sarcoma virus (KSHV); design: KSHV protease Kd (uM)
Description: as §2, §3

KSHV = KSHV inhibition, different assay, fold reduction; format: cell-based; conditions: FIG. 5
[5] = tested on: chloroquine-sensitive strain 3D7 of P. falciparum; test: P. falciparum growth inhibition in culture, strain 3D7; format: cell-based, Plasmodium falciparum; conditions: for EC50: Plasmodium falciparum, 3D7
HSV protease = test: Surface Plasmon Resonance, HSV protease; format: binding; conditions: SPR, FIG. 4
Experimental: as §1

CMV = CMV infection of HFF cells, virus titer; format: cell-based; conditions: FIG. 5
CMV protease [6] = target: T3, CMV protease (Human cytomegalovirus, UniProt P16753); test: Surface Plasmon Resonance, CMV protease; format: binding; design: herpes simplex virus (HSV) proteases (including HSV2, VZV, EBV, CMV, and KSHV); conditions: SPR, FIG. 4
T3 sequence (P16753 1-256): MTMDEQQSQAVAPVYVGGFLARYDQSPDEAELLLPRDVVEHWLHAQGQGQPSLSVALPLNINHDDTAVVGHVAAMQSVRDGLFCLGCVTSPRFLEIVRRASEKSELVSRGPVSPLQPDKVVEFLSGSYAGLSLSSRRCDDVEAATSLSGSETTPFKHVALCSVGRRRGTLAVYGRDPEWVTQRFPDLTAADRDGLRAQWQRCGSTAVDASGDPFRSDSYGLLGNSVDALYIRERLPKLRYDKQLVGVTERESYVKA
Experimental: as §1

CMV protease [7] = target: T3, CMV protease; test: Surface Plasmon Resonance (SPR), dissociation constant for CMV protease; format: binding; design: CMV protease Kd (uM)
Description: as §2, §3

C[n+]1ccc(-c2c3nc(c(-c4cc[n+](C)cc4)c4ccc([nH]4)c(-c4cc[n+](C)cc4)c4nc(c(-c5cc[n+](C)cc5)c5ccc2[nH]5)C=C4)C=C3)cc1 [TMPyP4, meso-5,10,15,20-Tetrakis-(N-methyl-4-pyridyl)porphine tetratosylate] was tested, and the “inhibition of lytic phase viral growth” value [1] was 90%, the EC50 ([2]; Table 3 section A, mean of at least two measurements, read-out: ED50 in K1) was 1 µM and the EC50 ([2]; Table 5, read-out: ED50 (μM) in K1) was 1 µM. The “disassociation constant (Kd), KSHV protease” value (KSHV protease [3]) was “micromolar range”, the “effect used together with acylovir” value (HSV-1 strain F; FIG. 5 bottom left panel, virus not named) was “almost completely eliminates all virus when used together” and the “effectiveness after passage for several cycles with both acylovir and TMPyP4” value (HSV-1 strain F; FIG. 5 bottom right panel, virus not named) was “still continues to be effective”. The “inhibition of HSV, virus titer” value (HSV-1 strain F; Vero cells, HSV-1 strain F, FIG. 5) was “comparably or better than existing antiherpes drugs”, the Kd (HSV2 protease) was 40 µM and the Kd (KSHV protease [4]) was 32.8 µM. The “inhibition of KSHV” value (KSHV) was “inhibited KSHV”, the EC50 ([5]; Table 3 section A, mean of at least two measurements, read-out: ED50 in 3D7) was 1 µM and the EC50 ([5]; Table 5, read-out: ED50 (μM) in 3D7) was 1 µM. For the same molecule, the “result of the 16 tested inhibitors in words (binding)” value ([5]; summary of Table 5) was “moderate binding”, the “disassociation constant (Kd), HSV protease” value (HSV protease) was “micromolar range” and the “inhibition of CMV, virus titer” value (CMV) was “comparably or better than existing antiherpes drugs”. The “disassociation constant (Kd), CMV protease” value (CMV protease [6]) was “micromolar range” and the Kd (CMV protease [7]) was 36 µM.
